# Source: patent US20240207292A1, “BORONIC ACID COMPOUNDS, COMPOSITIONS AND METHODS” (Trustees of Tufts College, priority 2021, published 2024)
# pIC50: −log10 of the molar value.
# Columns and labels:
# [1] = Stability of 6555 with sulfur-containing and other stabilizers, 50 mM AAPH at 80° C. for 30 mins (Tables 7-9); assay type: physicochemical
# Description: The effect of specified sulfur-containing compounds and other stabilizer compounds (including non-sulfur-containing stabilizer compounds) and mixtures of sulfur-containing compounds and non-sulfur-containing stabilizer compounds with the boronic acid compound 6555 (structure shown above) at various pH values.
# recombinant human FAP = recombinant human FAP (Homo sapiens (Human), UniProt Q12884); experiment: In vitro enzyme IC50 assay, FAP (Example 16); assay type: biochemical; details: 10 min preincubation at 25° C.; Z-Gly-Pro-AMC
# Experimental: Biological Materials: For the in vitro IC50 determination assays, recombinant human DPPIV, DPP9, FAP, and PREP were purchased from R&D Systems, and DPP8 was from Biomol International. Buffer systems used were A (25 mM Tris, pH 8.0), B (50 mM Tris, pH 7.5), C (50 mM Tris, 140 mM NaCl, pH 7.5), D (25 mM Tris, 250 mM NaCl, pH 7.5), and E (20 mM Tris, 20 mM KCl, pH 7.4). […] Substrate Specificity Assay. Peptide libraries (0.21 mM) were incubated for 24 h with 1 nM FAP in buffer E at 37° C. The reaction was quenched by the addition of 1.2 N HCl. The samples were analyzed by reverse-phase HPLC-MS on a Thermo Finnigan LCQ Duo, quantifying the peaks in the resulting base peak chromatograms. Relative cleavage values were determined by comparing the postquench abundance of intact peptides to those in the initial library.
# In Vitro Enzyme IC50 Assays. Enzymatic activity of DPPIV, DPP8, DPP9, FAP, and PREP was measured at 25° C. on a Molecular Devices M2e multidetection microtiter plate reader, monitoring the fluorescence at an excitation wavelength of 380 nm and an emission wavelength of 460 nm. The substrate was either H-Gly-Pro-AMC for the DPPIV, DPP8, and DPP9 assays or Z-Gly-Pro-AMC for the FAP and PREP assays. […] The final enzyme concentrations were 0.1, 0.8, 0.4, 1.2, and 0.6 nM for DPPIV, DPP8, DPP9, FAP, and PREP, respectively. […] Those prepared in pH 2.0 solution were preincubated at 25° C. for 4 h prior to dilution. Immediately prior to the commencement of the experiment, the 100 mM stocks were further diluted to 10^-3 M in the appropriate assay buffer, from which 1:10 serial dilutions were prepared. All inhibitors were tested in triplicate.
# [2] = Effect of N-acetyl methionine (NAM) on stability of 6522/6555 with 50 mM AAPH at 80° C. for 30 mins; assay type: physicochemical; details: pH 5.0, 2 mg/mL
# Experimental: Effect of N-acetyl methionine (NAM) on the stability of the compound 6522 (6522 compound structure immediately below) 80° C. in the presence of AAPH 2,2′-azobis-(2-amidopropane)hydrochloride, a free radical generator.
# • Concentration:2 mg/mL • Reaction condition: add 50 mM AAPH, at 80° C. for 30 mins
# [3] = Effect of NAM on stability of 6522/6555 with 50 mM AAPH at 60° C. for 60 mins as a function of pH; assay type: physicochemical; details: 5 mM NAM and 50 mM AAPH
# Experimental: Effect of […] N-acetyl methionine (NAM) on the stability of the compounds 6522 (6522 compound structure shown above) at 60° C. in the presence of AAPH 2,2′-azobis-(2-amidopropane)hydrochloride as a function of pH.
# • Concentration: of 6522 2 mg/mL • Reaction condition: With 5 mM NAM and 50 mM AAPH, at 60° C. for 60 mins
# Sequence of recombinant human FAP (Q12884 whole entry): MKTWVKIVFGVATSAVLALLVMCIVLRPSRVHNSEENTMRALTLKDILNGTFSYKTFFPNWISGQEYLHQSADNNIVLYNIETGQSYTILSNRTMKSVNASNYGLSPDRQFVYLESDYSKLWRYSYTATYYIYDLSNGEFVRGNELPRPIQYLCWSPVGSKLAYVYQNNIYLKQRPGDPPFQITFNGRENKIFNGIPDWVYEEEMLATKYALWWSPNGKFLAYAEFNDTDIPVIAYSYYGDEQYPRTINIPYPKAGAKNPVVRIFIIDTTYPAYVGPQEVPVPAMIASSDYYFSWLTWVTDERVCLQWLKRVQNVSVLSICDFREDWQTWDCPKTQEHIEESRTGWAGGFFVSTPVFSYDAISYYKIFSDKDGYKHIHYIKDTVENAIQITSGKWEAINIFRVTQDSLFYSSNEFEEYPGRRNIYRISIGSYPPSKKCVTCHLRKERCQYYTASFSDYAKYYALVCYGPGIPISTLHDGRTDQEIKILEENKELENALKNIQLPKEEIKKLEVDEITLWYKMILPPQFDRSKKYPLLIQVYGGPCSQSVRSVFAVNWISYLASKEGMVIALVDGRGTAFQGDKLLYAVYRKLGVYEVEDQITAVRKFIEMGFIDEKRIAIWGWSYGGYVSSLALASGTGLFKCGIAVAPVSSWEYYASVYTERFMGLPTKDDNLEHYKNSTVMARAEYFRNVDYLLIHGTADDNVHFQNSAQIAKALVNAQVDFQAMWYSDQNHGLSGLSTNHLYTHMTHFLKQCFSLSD
compound,measurement,setting,value
"C[C@@H](NC(=O)c1ccc(CNC(=O)CN2CCN(CC(=O)O)CCN(CC(=O)O)CCN(CC(=O)O)CC2)cc1)C(=O)N1CCC[C@H]1B(O)O [compound 6555, DOTA-aminomethyl-Bz-D-Ala-boroPro]",6555 Remain (%),"[1]; ascorbate (2.5 mM) +, gentisate (1 mM) +, Sodium sulfite 5.0 mM, pH 4.6, SID 90617, AAPH 80° C. 30 mins",90.3%
same,6555 Remain (%),"[1]; ascorbate (2.5 mM) +, gentisate (1 mM) +, Sodium sulfite 10.0 mM, pH 4.8, SID 90613, AAPH 80° C. 30 mins",93.8%
same,6555 Remain (%),"[1]; ascorbate (2.5 mM) +, gentisate (1 mM) +, Sodium sulfite 25.0 mM, pH 5.1, SID 90517, AAPH 80° C. 30 mins",94.1%
same,6555 Remain (%),"[1]; ascorbate (2.5 mM) +, gentisate (1 mM) +, Stabilizer (1 mM) NAM, pH 4.6, SID 90629, AAPH 80° C. 30 mins",30.8%
same,6555 Remain (%),"[1]; ascorbate (2.5 mM) +, gentisate (1 mM) +, Stabilizer (1 mM) Sodium hydrosulfite, pH 4.5, SID 90629, AAPH 80° C. 30 mins",47.4%
same,6555 Remain (%),"[1]; ascorbate (2.5 mM) +, gentisate (1 mM) +, Stabilizer (1 mM) Sodium metabisulfite, pH 4.5, SID 90628, AAPH 80° C. 30 mins",71.1%
same,6555 Remain (%),"[1]; ascorbate (2.5 mM) +, gentisate (1 mM) +, Stabilizer (2.5 mM) Acetone sodium bisulfite, pH 4.6, SID 90523, AAPH 80° C. 30 mins",94.0%
same,6555 Remain (%),"[1]; ascorbate (2.5 mM) +, gentisate (1 mM) +, Stabilizer (2.5 mM) Acetone sodium bisulfite, pH 4.6, SID 90621, second listing, AAPH 80° C. 30 mins",73.1%
same,6555 Remain (%),"[1]; ascorbate (2.5 mM) +, gentisate (1 mM) +, Stabilizer (2.5 mM) D-mannitol, pH 4.5, SID 90641, AAPH 80° C. 30 mins",15.5%
same,6555 Remain (%),"[1]; ascorbate (2.5 mM) +, gentisate (1 mM) +, Stabilizer (2.5 mM) MSM(dimethyl sulfone), pH 4.5, SID 90598, AAPH 80° C. 30 mins",8.2%
same,6555 Remain (%),"[1]; ascorbate (2.5 mM) +, gentisate (1 mM) +, Stabilizer (2.5 mM) N-Acetyl-L-phenylalanine, pH 4.0, SID 90610, AAPH 80° C. 30 mins",20.1%
same,6555 Remain (%),"[1]; ascorbate (2.5 mM) +, gentisate (1 mM) +, Stabilizer (2.5 mM) N-Acetyl-L-tyrosine, pH 4.0, SID 90589, AAPH 80° C. 30 mins",13.6%
same,6555 Remain (%),"[1]; ascorbate (2.5 mM) +, gentisate (1 mM) +, Stabilizer (2.5 mM) NAC, pH 4.1, SID 90582, AAPH 80° C. 30 mins",31.4%
same,6555 Remain (%),"[1]; ascorbate (2.5 mM) +, gentisate (1 mM) +, Stabilizer (2.5 mM) NAM, pH 4.0, SID 90543, AAPH 80° C. 30 mins",90.8%
same,6555 Remain (%),"[1]; ascorbate (2.5 mM) +, gentisate (1 mM) +, Stabilizer (2.5 mM) NAM, pH 4.5, SID 90623, second listing, AAPH 80° C. 30 mins",53.3%
same,6555 Remain (%),"[1]; ascorbate (2.5 mM) +, gentisate (1 mM) +, Stabilizer (2.5 mM) Potassium metabisulfite, pH 4.4, SID 90622, second listing, AAPH 80° C. 30 mins",93.7%
same,6555 Remain (%),"[1]; ascorbate (2.5 mM) +, gentisate (1 mM) +, Stabilizer (2.5 mM) Potassium metabisulfite, pH 4.5, SID 90526, AAPH 80° C. 30 mins",94.1%
same,6555 Remain (%),"[1]; ascorbate (2.5 mM) +, gentisate (1 mM) +, Stabilizer (2.5 mM) Sodium L-Glutamate monohydrate, pH 4.7, SID 90604, AAPH 80° C. 30 mins",8.2%
same,6555 Remain (%),"[1]; ascorbate (2.5 mM) +, gentisate (1 mM) +, Stabilizer (2.5 mM) Sodium formaldehydesulfoxylate dihydrate, pH 4.4, SID 90527, AAPH 80° C. 30 mins",91.7%
same,6555 Remain (%),"[1]; ascorbate (2.5 mM) +, gentisate (1 mM) +, Stabilizer (2.5 mM) Sodium formaldehydesulfoxylate dihydrate, pH 4.5, SID 90620, second listing, AAPH 80° C. 30 mins",58.0%
same,6555 Remain (%),"[1]; ascorbate (2.5 mM) +, gentisate (1 mM) +, Stabilizer (2.5 mM) Sodium hydrosulfite, pH 4.3, SID 90539, AAPH 80° C. 30 mins",94.1%
same,6555 Remain (%),"[1]; ascorbate (2.5 mM) +, gentisate (1 mM) +, Stabilizer (2.5 mM) Sodium hydrosulfite, pH 4.4, SID 90537, second listing, AAPH 80° C. 30 mins",91.7%
same,6555 Remain (%),"[1]; ascorbate (2.5 mM) +, gentisate (1 mM) +, Stabilizer (2.5 mM) Sodium metabisulfite, pH 4.4, SID 90515, AAPH 80° C. 30 mins",93.8%
same,6555 Remain (%),"[1]; ascorbate (2.5 mM) +, gentisate (1 mM) +, Stabilizer (2.5 mM) Sodium metabisulfite, pH 4.5, SID 90619, second listing, AAPH 80° C. 30 mins",93.4%
same,6555 Remain (%),"[1]; ascorbate (2.5 mM) +, gentisate (1 mM) +, Stabilizer (2.5 mM) Sodium sulfite, pH 4.5, SID 90616, second listing, AAPH 80° C. 30 mins",67.9%
same,6555 Remain (%),"[1]; ascorbate (2.5 mM) +, gentisate (1 mM) +, Stabilizer (2.5 mM) Thiourea, pH 4.5, SID 90607, AAPH 80° C. 30 mins",84.1%
same,6555 Remain (%),"[1]; ascorbate (2.5 mM) +, gentisate (1 mM) +, Stabilizer none, pH 5.1, SID 90525, AAPH 80° C. 30 mins",16.7%
same,6555 Remain (%),"[1]; ascorbate none, gentisate none, Stabilizer (2.5 mM) NAM, pH 4.0, SID 90640, AAPH 80° C. 30 mins",85.9%
same,6555 Remain (%),"[1]; ascorbate none, gentisate none, Stabilizer none, pH 4.6, SID 90646, AAPH 80° C. 30 mins",55.8%
same,6555 Remain (%),"[1]; mM: ascorbate 0, gentisate 0, NAM 5, metabisulfite 5, hydrosulfite 0, pH 4.3, SID 90664, 50 mM AAPH 80° C. 30 mins",88.8%
same,6555 Remain (%),"[1]; mM: ascorbate 2.5, gentisate 1, NAM 2.5, metabisulfite 2.5, hydrosulfite 0, pH 4.5, SID 90637, 50 mM AAPH 80° C. 30 mins",94.8%
same,6555 Remain (%),"[1]; mM: ascorbate 2.5, gentisate 1, NAM 10, metabisulfite 2.5, hydrosulfite 0, pH 4.0, SID 90638, 50 mM AAPH 80° C. 30 mins",93.2%
same,6555 Remain (%),"[1]; mM: ascorbate 2.5, gentisate 1, NAM 25, metabisulfite 2.5, hydrosulfite 0, pH 4.0, SID 90631, 50 mM AAPH 80° C. 30 mins",92.2%
same,6555 Remain (%),"[1]; mM: ascorbate 5, gentisate 2, NAM 0, metabisulfite 5, hydrosulfite 0, pH 4.5, SID 90643, 50 mM AAPH 80° C. 30 mins",95.6%
same,6555 Remain (%),"[1]; mM: ascorbate 5, gentisate 2, NAM 0, metabisulfite 5, hydrosulfite 5, pH 4.4, SID 90686, 50 mM AAPH 80° C. 30 mins",95.3%
same,6555 Remain (%),"[1]; mM: ascorbate 5, gentisate 2, NAM 5, metabisulfite 0, hydrosulfite 0, pH 4.5, SID 90642, 50 mM AAPH 80° C. 30 mins",66.5%
same,6555 Remain (%),"[1]; mM: ascorbate 5, gentisate 2, NAM 5, metabisulfite 0, hydrosulfite 5, pH 4.5, SID 90701, 50 mM AAPH 80° C. 30 mins",95.7%
same,6555 Remain (%),"[1]; mM: ascorbate 5, gentisate 2, NAM 5, metabisulfite 5, hydrosulfite 0, pH 4.5, SID 90639, 50 mM AAPH 80° C. 30 mins",95.8%
same,6555 Remain (%),"[1]; mM: first column (ascorbate) 2.5, gentisate 1, NAM 0, metabisulfite 2.5, hydrosulfite 0, pH 4.5, SID 90619, 50 mM AAPH 80° C. 30 mins",93.4%
same,pIC50,recombinant human FAP,9.15
same,6555 Remain (%),[2]; NAM 0 mM,64.5%
same,6555 Remain (%),[2]; NAM 10 mM,81.7%
same,6555 Remain (%),[2]; NAM 40 mM,82.9%
same,6555 Remain (%),[2]; NAM 80 mM,85.0%
same,6555 Remain (%),[2]; NAM 100 mM,85.6%
same,6555 Remain (%),[2]; NAM 200 mM,87.3%
same,6555 Remain (%),[2]; NAM 400 mM,90.2%
same,6555 Remain (%),"[3]; pH 4, 2 mg/mL",76.2%
same,6555 Remain (%),"[3]; pH 5, 2 mg/mL",70.0%
